Results from ChEMBL document CHEMBL1201862, “PubChem BioAssay data set” (2004).
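Each compound was tested at five concentrations against cells in 96-well plates for 48 hours. Here, GI50 denotes the concentration required for 50% inhibition of growth.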 Calls of active or inactive are those of the source. No stated cut-off is given here; in the data, active = GI50 up to about 1.1 µM and inactive = higher.

Experiments:
Experiment in all cases: growth of human tumour cells (NCI), 48 h
[1] = system: OVCAR-3
[2] = system: Malme-3M
[3] = system: HOP-62
[4] = system: NCI-H226
[5] = system: UACC-62
[6] = system: OVCAR-5
[7] = system: TK-10
[8] = system: HCC 2998
[9] = system: HCT-15
[10] = system: SF-295
[11] = system: HL-60
[12] = system: ACHN
[13] = system: 786-0
[14] = system: EKVX
[15] = system: SK-MEL-28
[16] = system: SK-MEL-5
[17] = system: K562
[18] = system: SR

Compound	GI50 [1]	GI50 [2]	GI50 [3]	GI50 [4]	GI50 [5]	GI50 [6]	GI50 [7]	GI50 [8]	GI50 [9] [µM]	GI50 [10]	GI50 [11]	GI50 [12]	GI50 [13]	GI50 [14]	GI50 [15]	GI50 [16]	GI50 [17]	GI50 [18]
N#C/C(=C\c1ccc(CP(=O)(O)O)cc1)C(N)=O	> 100 µM (inactive)	> 100 µM (inactive)	> 100 µM (inactive)	> 100 µM (inactive)	> 100 µM (inactive)	> 100 µM (inactive)	> 100 µM (inactive)	> 100 µM (inactive)	> 100	> 100 µM (inactive)	> 100 µM (inactive)	> 100 µM (inactive)	> 100 µM (inactive)	> 100 µM (inactive)	> 100 µM (inactive)	> 100 µM (inactive)	> 100 µM (inactive)	–
CCOC(=O)c1ccc(/N=N\c2ccc(N(CCC#N)CCC#N)cc2C)cc1	> 100 µM (inactive)	> 100 µM (inactive)	> 100 µM (inactive)	> 100 µM (inactive)	> 100 µM (inactive)	> 100 µM (inactive)	> 100 µM (inactive)	> 100 µM (inactive)	> 100	> 100 µM (inactive)	> 100 µM (inactive)	> 100 µM (inactive)	35.6 µM (inactive)	> 100 µM (inactive)	–	> 100 µM (inactive)	> 100 µM (inactive)	–
CC1=NN(c2ccccc2)C(=O)C1/N=N/c1ccc(Br)c(C)c1 (stereo unspecified)	> 100 µM (inactive)	> 100 µM (inactive)	> 100 µM (inactive)	> 100 µM (inactive)	> 100 µM (inactive)	> 100 µM (inactive)	> 100 µM (inactive)	> 100 µM (inactive)	> 100	> 100 µM (inactive)	> 100 µM (inactive)	> 100 µM (inactive)	> 100 µM (inactive)	> 100 µM (inactive)	> 100 µM (inactive)	> 100 µM (inactive)	> 100 µM (inactive)	–
NC1=NC2=C(CCCC2)C(c2cccs2)S1 (stereo unspecified)	59.8 µM (inactive)	92.9 µM (inactive)	> 100 µM (inactive)	–	> 100 µM (inactive)	> 100 µM (inactive)	> 100 µM (inactive)	> 100 µM (inactive)	> 100	> 100 µM (inactive)	8.73 µM (inactive)	> 100 µM (inactive)	84.5 µM (inactive)	> 100 µM (inactive)	> 100 µM (inactive)	54.5 µM (inactive)	56.9 µM (inactive)	–
CCCC1C(=O)CCc2c(OC)ccc(OC)c21 (stereo unspecified)	73.6 µM (inactive)	> 100 µM (inactive)	> 100 µM (inactive)	–	> 100 µM (inactive)	> 100 µM (inactive)	> 100 µM (inactive)	> 100 µM (inactive)	> 100	> 100 µM (inactive)	73.8 µM (inactive)	> 100 µM (inactive)	> 100 µM (inactive)	> 100 µM (inactive)	–	> 100 µM (inactive)	59 µM (inactive)	–
Cc1cc(=O)n2c(cc3cccccc32)n1	> 100 µM (inactive)	–	> 100 µM (inactive)	> 100 µM (inactive)	> 100 µM (inactive)	> 100 µM (inactive)	> 100 µM (inactive)	> 100 µM (inactive)	> 100	> 100 µM (inactive)	> 100 µM (inactive)	> 100 µM (inactive)	> 100 µM (inactive)	> 100 µM (inactive)	> 100 µM (inactive)	–	> 100 µM (inactive)	> 100 µM (inactive)
Cc1cccc(C)c1NC(=O)C(=O)C(C(=O)c1ccccc1-c1ccccc1)C1OC(=O)c2ccccc21 (stereo unspecified)	17.1 µM (inactive)	12.5 µM (inactive)	16.9 µM (inactive)	11.6 µM (inactive)	17.4 µM (inactive)	23.2 µM (inactive)	26.7 µM (inactive)	15.1 µM (inactive)	–	31.3 µM (inactive)	21 µM (inactive)	43.9 µM (inactive)	18.2 µM (inactive)	26.3 µM (inactive)	22.9 µM (inactive)	17.8 µM (inactive)	30.4 µM (inactive)	–
O=C(NCCCN1CCN(CCCNC(=O)Nc2cc(Cl)ccc2Cl)CC1)Nc1cc(Cl)ccc1Cl	> 100 µM (inactive)	24.3 µM (inactive)	52.6 µM (inactive)	> 100 µM (inactive)	64.7 µM (inactive)	> 100 µM (inactive)	> 100 µM (inactive)	–	65.3	49.3 µM (inactive)	34.4 µM (inactive)	> 100 µM (inactive)	32.5 µM (inactive)	–	60.3 µM (inactive)	39.7 µM (inactive)	35.5 µM (inactive)	–
CCOC(=O)c1ccc(NC(=O)SCCC(=O)O)cc1	> 100 µM (inactive)	–	> 100 µM (inactive)	3.15 µM (inactive)	39.5 µM (inactive)	> 100 µM (inactive)	> 100 µM (inactive)	> 100 µM (inactive)	> 100	> 100 µM (inactive)	> 100 µM (inactive)	51.1 µM (inactive)	> 100 µM (inactive)	0.841 µM (active)	> 100 µM (inactive)	–	63.1 µM (inactive)	> 100 µM (inactive)
NC1=NCCC1(c1ccccc1)c1ccccn1 (stereo unspecified)	> 100 µM (inactive)	> 100 µM (inactive)	> 100 µM (inactive)	> 100 µM (inactive)	> 100 µM (inactive)	> 100 µM (inactive)	> 100 µM (inactive)	> 100 µM (inactive)	> 100	> 100 µM (inactive)	> 100 µM (inactive)	> 100 µM (inactive)	> 100 µM (inactive)	> 100 µM (inactive)	> 100 µM (inactive)	> 100 µM (inactive)	> 100 µM (inactive)	–
Cc1cccc(NC2=NC(=O)C(CC(=O)Nc3ccc(Cl)cc3C)S2)c1 (stereo unspecified)	> 100 µM (inactive)	> 100 µM (inactive)	> 100 µM (inactive)	> 100 µM (inactive)	> 100 µM (inactive)	> 100 µM (inactive)	> 100 µM (inactive)	> 100 µM (inactive)	> 100	> 100 µM (inactive)	> 100 µM (inactive)	> 100 µM (inactive)	> 100 µM (inactive)	> 100 µM (inactive)	> 100 µM (inactive)	> 100 µM (inactive)	> 100 µM (inactive)	–
CCC(O)CCCCCCCCCCCCCCC(=O)O (stereo unspecified)	> 100 µM (inactive)	> 100 µM (inactive)	> 100 µM (inactive)	> 100 µM (inactive)	> 100 µM (inactive)	> 100 µM (inactive)	> 100 µM (inactive)	–	–	> 100 µM (inactive)	24.8 µM (inactive)	> 100 µM (inactive)	84.9 µM (inactive)	> 100 µM (inactive)	> 100 µM (inactive)	18.8 µM (inactive)	> 100 µM (inactive)	49.9 µM (inactive)
CN(C)c1ccc(C(C#N)NNC(=O)Cc2ccccc2)cc1 (stereo unspecified)	> 100 µM (inactive)	> 100 µM (inactive)	> 100 µM (inactive)	> 100 µM (inactive)	> 100 µM (inactive)	> 100 µM (inactive)	> 100 µM (inactive)	–	> 100	> 100 µM (inactive)	> 100 µM (inactive)	> 100 µM (inactive)	> 100 µM (inactive)	–	> 100 µM (inactive)	> 100 µM (inactive)	> 100 µM (inactive)	> 100 µM (inactive)
CC1=C(c2cc(C(=O)Nc3ccc(Cl)cc3)nc(S)n2)Sc2ccccc2N1	> 100 µM (inactive)	> 100 µM (inactive)	> 100 µM (inactive)	–	> 100 µM (inactive)	> 100 µM (inactive)	> 100 µM (inactive)	> 100 µM (inactive)	> 100	> 100 µM (inactive)	> 100 µM (inactive)	> 100 µM (inactive)	> 100 µM (inactive)	> 100 µM (inactive)	> 100 µM (inactive)	> 100 µM (inactive)	> 100 µM (inactive)	–
Nc1c(-c2ccc(Cl)cc2)[n+]([O-])c2ccccc2[n+]1[O-]	67.3 µM (inactive)	> 100 µM (inactive)	> 100 µM (inactive)	14.5 µM (inactive)	> 100 µM (inactive)	> 100 µM (inactive)	> 100 µM (inactive)	49.9 µM (inactive)	76.4	87.7 µM (inactive)	32.4 µM (inactive)	57.1 µM (inactive)	> 100 µM (inactive)	> 100 µM (inactive)	76.9 µM (inactive)	> 100 µM (inactive)	49.3 µM (inactive)	–
Cc1cc(NS(=O)(=O)c2ccc(NC(=O)c3cccc4c(Nc5ccc(S(=O)(=O)Nc6cc(C)on6)cc5)c5ccc(Cl)cc5nc34)cc2)no1	68.5 µM (inactive)	> 100 µM (inactive)	61.5 µM (inactive)	–	35.2 µM (inactive)	> 100 µM (inactive)	> 100 µM (inactive)	56 µM (inactive)	45.9	> 100 µM (inactive)	35 µM (inactive)	85.7 µM (inactive)	> 100 µM (inactive)	> 100 µM (inactive)	41 µM (inactive)	56.4 µM (inactive)	40.8 µM (inactive)	–
CCCCCCCCCCCCCC/C(C(=O)OC)=C(/O)C(=O)OCC	> 100 µM (inactive)	> 100 µM (inactive)	61.2 µM (inactive)	> 100 µM (inactive)	16.9 µM (inactive)	27 µM (inactive)	47.3 µM (inactive)	19.9 µM (inactive)	19.7	20.6 µM (inactive)	> 100 µM (inactive)	28.9 µM (inactive)	19.7 µM (inactive)	37.2 µM (inactive)	24 µM (inactive)	> 100 µM (inactive)	27 µM (inactive)	–
